According to patent US11419806B2, “Prebiotic oral care methods using a saccharide” (Colgate-Palmolive Company, priority 2013, dated 2022):

Legend:
Assay in all cases: Twenty-four hour biofilm growth (crystal violet)
Assay type in all cases: cell-based
[1] = test system: A. actinomycetemcomitans
Description: (§1) The increase in biofilm formation of the tested bacteria in response to selected saccharides (D-turanose, D-lactitol, myo-inositol, and N-acetyl-D-mannosamine) was investigated by setting up biofilm growth assays in a nutritionally rich medium (brain heart infusion broth (BHI), Oxoid), over 24 hours. Late exponential growth phase liquid cultures were prepared by transferring the respective bacterium from blood agar plates to BHI and overnight incubation at 37° C. in an anaerobic atmosphere for A. viscosus, V. parvula, P. gingivalis, P. intermedia, T. forsythia, A. naeslundii, and C. sputigena, and in a 5% CO2 environment for S. salivarius, S. sanguinis, S. mitis, A. actinomycetemcomitans, S. mutans, and S. gordonii. Overnight cultures were transferred to BHI and adjusted to a concentration of 1×10^7 CFU/ml by measuring the optical density at 600 nm (OD600) (BioRad SmartSpec 3000). For each strain, 200 μl of the bacterial suspension was added to a 96-well plate containing 20 μl of the respective saccharides. Final concentrations of the saccharides were set to 5, 10, 20 and 25 μmol/ml. […] Additionally, for each bacterium tested, a background control, to correct for background staining, was added. This background control contained the bacterium tested and 0.03 weight % chlorhexidine, as an antiseptic. Plates were incubated as previously described. After 24 hrs the supernatant was removed from the wells of the plates. The wells were washed twice with 1×100 μL PBS (phosphate buffered saline), fixed for 20 minutes with 96% vol. ethanol (96% vol. solution in water) and the biofilm retained at the bottom of the wells was stained with 1 weight % crystal violet (1 weight % solution in water). The bound dye was dissolved with 5% vol. acetic acid (5% vol. solution in water). Quantification of the stained biofilm was performed by measuring the absorbance at 630 nm using a Multiskan Ascent microplate reader (Thermo Scientific).
(§2) The experiment was carried out on three different days (thus providing 3 biological replicas) and each day the experiment was carried out in quadruple (thus providing 4 technical replicas) for each combination of bacterium with saccharide and for each control. For each day and for each combination, the average (mean) of the values obtained (as detailed above) for the four technical replicas was calculated to provide a single value for each combination on each day. The values shown in Tables 7a, 7b, 8a, 8b, below, are the average (mean) of the three single values obtained for each combination of bacterium with saccharide.

[2] = test system: A. naeslundii
Description: as §1, §2

[3] = test system: A. viscosus
Description: as §1, §2

[4] = test system: C. sputigena
Description: as §1, §2

[5] = test system: P. gingivalis
Description: as §1, §2

[6] = test system: P. intermedia
Description: as §1, §2

[7] = test system: S. gordonii
Description: as §1, §2

[8] = test system: S. mitis
Description: as §1, §2

[9] = test system: S. mutans; conditions: for biofilm growth: OD 630 nm at 24 hrs divided by OD of control (control = 1): S mutans
Description: as §1, §2

[10] = test system: S. salivarius
Description: as §1, §2

[11] = test system: S. sanguinis
Description: as §1, §2

[12] = test system: T. forsythia
Description: as §1, §2

[13] = test system: V. parvula
Description: as §1, §2

## OC[C@@H](O)[C@@H](O[C@H]1O[C@H](CO)[C@H](O)[C@H](O)[C@H]1O)[C@H](O)[C@@H](O)CO [D-Lactitol, 4-O-α-D-galactopyranosyl-D-glucitol]
[1]; 5 μmol/ml
  biofilm growth: OD 630 nm at 24 hrs divided by OD of control (control = 1): 0.6593
[1]; 10 μmol/ml
  biofilm growth: OD 630 nm at 24 hrs divided by OD of control (control = 1): 0.6496
[1]; 20 μmol/ml
  biofilm growth: OD 630 nm at 24 hrs divided by OD of control (control = 1): 0.8502
[1]; 25 μmol/ml
  biofilm growth: OD 630 nm at 24 hrs divided by OD of control (control = 1): 0.8372
[2]; 5 μmol/ml
  biofilm growth: OD 630 nm at 24 hrs divided by OD of control (control = 1): 1.0191
[2]; 10 μmol/ml
  biofilm growth: OD 630 nm at 24 hrs divided by OD of control (control = 1): 1.0015
[2]; 20 μmol/ml
  biofilm growth: OD 630 nm at 24 hrs divided by OD of control (control = 1): 1.0337
[2]; 25 μmol/ml
  biofilm growth: OD 630 nm at 24 hrs divided by OD of control (control = 1): 1.0428
[3]; 5 μmol/ml
  biofilm growth: OD 630 nm at 24 hrs divided by OD of control (control = 1): 0.6832
[3]; 10 μmol/ml
  biofilm growth: OD 630 nm at 24 hrs divided by OD of control (control = 1): 0.7502
[3]; 20 μmol/ml
  biofilm growth: OD 630 nm at 24 hrs divided by OD of control (control = 1): 0.9528
[3]; 25 μmol/ml
  biofilm growth: OD 630 nm at 24 hrs divided by OD of control (control = 1): 0.9153
[4]; 5 μmol/ml
  biofilm growth: OD 630 nm at 24 hrs divided by OD of control (control = 1): 0.5867
[4]; 10 μmol/ml
  biofilm growth: OD 630 nm at 24 hrs divided by OD of control (control = 1): 0.5658
[4]; 20 μmol/ml
  biofilm growth: OD 630 nm at 24 hrs divided by OD of control (control = 1): 0.6841
[4]; 25 μmol/ml
  biofilm growth: OD 630 nm at 24 hrs divided by OD of control (control = 1): 0.7591
[5]; 5 μmol/ml
  biofilm growth: OD 630 nm at 24 hrs divided by OD of control (control = 1): 0.9536
[5]; 10 μmol/ml
  biofilm growth: OD 630 nm at 24 hrs divided by OD of control (control = 1): 0.9616
[5]; 20 μmol/ml
  biofilm growth: OD 630 nm at 24 hrs divided by OD of control (control = 1): 0.8995
[5]; 25 μmol/ml
  biofilm growth: OD 630 nm at 24 hrs divided by OD of control (control = 1): 0.9701
[6]; 5 μmol/ml
  biofilm growth: OD 630 nm at 24 hrs divided by OD of control (control = 1): 1.0504
[6]; 10 μmol/ml
  biofilm growth: OD 630 nm at 24 hrs divided by OD of control (control = 1): 1.0396
[6]; 20 μmol/ml
  biofilm growth: OD 630 nm at 24 hrs divided by OD of control (control = 1): 1.1500
[6]; 25 μmol/ml
  biofilm growth: OD 630 nm at 24 hrs divided by OD of control (control = 1): 1.1288
[7]; 5 μmol/ml
  biofilm growth: OD 630 nm at 24 hrs divided by OD of control (control = 1): 0.6036
[7]; 10 μmol/ml
  biofilm growth: OD 630 nm at 24 hrs divided by OD of control (control = 1): 0.5959
[7]; 20 μmol/ml
  biofilm growth: OD 630 nm at 24 hrs divided by OD of control (control = 1): 0.4885
[7]; 25 μmol/ml
  biofilm growth: OD 630 nm at 24 hrs divided by OD of control (control = 1): 0.5149
[8]; 5 μmol/ml
  biofilm growth: OD 630 nm at 24 hrs divided by OD of control (control = 1): 0.6696
[8]; 10 μmol/ml
  biofilm growth: OD 630 nm at 24 hrs divided by OD of control (control = 1): 0.5919
[8]; 20 μmol/ml
  biofilm growth: OD 630 nm at 24 hrs divided by OD of control (control = 1): 0.8007
[8]; 25 μmol/ml
  biofilm growth: OD 630 nm at 24 hrs divided by OD of control (control = 1): 0.8340
[9]; Example 3
  stimulation of biofilm formation of S. mutans: does not stimulate
[9]; 5 μmol/ml
  biofilm growth: OD 630 nm at 24 hrs divided by OD of control (control = 1): 0.9767
[9]; 10 μmol/ml
  biofilm growth: OD 630 nm at 24 hrs divided by OD of control (control = 1): 0.9333
[9]; 20 μmol/ml
  biofilm growth: OD 630 nm at 24 hrs divided by OD of control (control = 1): 1.1068
[9]; 25 μmol/ml
  biofilm growth: OD 630 nm at 24 hrs divided by OD of control (control = 1): 1.0108
[10]; 5 μmol/ml
  biofilm growth: OD 630 nm at 24 hrs divided by OD of control (control = 1): 2.1471
[10]; 10 μmol/ml
  biofilm growth: OD 630 nm at 24 hrs divided by OD of control (control = 1): 4.8849
[10]; 20 μmol/ml
  biofilm growth: OD 630 nm at 24 hrs divided by OD of control (control = 1): 5.5726
[10]; 25 μmol/ml
  biofilm growth: OD 630 nm at 24 hrs divided by OD of control (control = 1): 6.4158
[11]; 5 μmol/ml
  biofilm growth: OD 630 nm at 24 hrs divided by OD of control (control = 1): 1.2160
[11]; 10 μmol/ml
  biofilm growth: OD 630 nm at 24 hrs divided by OD of control (control = 1): 1.5548
[11]; 20 μmol/ml
  biofilm growth: OD 630 nm at 24 hrs divided by OD of control (control = 1): 1.8523
[11]; 25 μmol/ml
  biofilm growth: OD 630 nm at 24 hrs divided by OD of control (control = 1): 2.2341
[12]; 5 μmol/ml
  biofilm growth: OD 630 nm at 24 hrs divided by OD of control (control = 1): 0.5843
[12]; 10 μmol/ml
  biofilm growth: OD 630 nm at 24 hrs divided by OD of control (control = 1): 0.5942
[12]; 20 μmol/ml
  biofilm growth: OD 630 nm at 24 hrs divided by OD of control (control = 1): 0.7398
[12]; 25 μmol/ml
  biofilm growth: OD 630 nm at 24 hrs divided by OD of control (control = 1): 0.6158
[13]; 5 μmol/ml
  biofilm growth: OD 630 nm at 24 hrs divided by OD of control (control = 1): 1.0022
[13]; 10 μmol/ml
  biofilm growth: OD 630 nm at 24 hrs divided by OD of control (control = 1): 1.0212
[13]; 20 μmol/ml
  biofilm growth: OD 630 nm at 24 hrs divided by OD of control (control = 1): 0.9658
[13]; 25 μmol/ml
  biofilm growth: OD 630 nm at 24 hrs divided by OD of control (control = 1): 0.9859
